Source: the supplement of paper PMC10307832

Experiments:
Assay in all cases: relative viability (nuclei count vs DMSO), 5 days (fraction); higher = more cells survive
[1] = compound: C[C@]1(O)C[C@@H](c2nc(-c3ccc4ccc(-c5ccccc5)nc4c3)c3c(N)nccn32)C1 [Linsitinib] + COc1cc2c(Oc3ccc(NC(=O)C4(C(=O)Nc5ccc(F)cc5)CC4)cc3F)ccnc2cc1OCCCN1CCOCC1 [Foretinib] (partner 0.25 µM)
Outline: (§1)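 Dosing by pin tool came one day after lung cancer cell lines were seeded in 1536-well plates, using either one drug or a fixed anchor-drug dose plus five library-drug doses (not always all listed) in √10 steps. After 5 days, nuclei were counted on 4× images. Relative viability is treated-well nuclei count divided by vehicle-well nuclei count, and values are medians of duplicate plates.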

[2] = compound: C[C@]1(O)C[C@@H](c2nc(-c3ccc4ccc(-c5ccccc5)nc4c3)c3c(N)nccn32)C1 [Linsitinib] + NC(=O)Nc1cc(-c2cccc(F)c2)sc1C(=O)N[C@H]1CCCNC1 [AZD7762] (partner 0.2 µM)
Outline: as §1

[3] = compound: Cc1ccc(C(=O)N(CCCN)[C@@H](c2nc3cc(Cl)ccc3c(=O)n2Cc2ccccc2)C(C)C)cc1 [Ispinesib] + Cc1nc(Nc2ncc(C(=O)Nc3c(C)cccc3Cl)s2)cc(N2CCN(CCO)CC2)n1 [Dasatinib] (partner 0.075 µM)
Outline: as §1

[4] = compound: Cc1ccc(C(=O)N(CCCN)[C@@H](c2nc3cc(Cl)ccc3c(=O)n2Cc2ccccc2)C(C)C)cc1 [Ispinesib] + NC(=O)Nc1cc(-c2cccc(F)c2)sc1C(=O)N[C@H]1CCCNC1 [AZD7762] (partner 0.2 µM)
Outline: as §1

Cell Line	relative viability ([1]; first compound 0.01 µM)	relative viability ([1]; first compound 0.03162 µM)	relative viability ([1]; first compound 0.1 µM)	relative viability ([1]; first compound 0.3162 µM)	relative viability ([1]; first compound 1 µM)	relative viability ([2]; first compound 0.01 µM)	relative viability ([2]; first compound 0.03162 µM)	relative viability ([2]; first compound 0.1 µM)	relative viability ([2]; first compound 0.3162 µM)	relative viability ([2]; first compound 1 µM)	relative viability ([3]; first compound 0.001 µM)	relative viability ([3]; first compound 0.003162 µM)	relative viability ([3]; first compound 0.01 µM)	relative viability ([3]; first compound 0.03162 µM)	relative viability ([3]; first compound 0.1 µM)	relative viability ([4]; first compound 0.001 µM)	relative viability ([4]; first compound 0.003162 µM)	relative viability ([4]; first compound 0.01 µM)	relative viability ([4]; first compound 0.03162 µM)	relative viability ([4]; first compound 0.1 µM)
NCI-H2087	1	0.995	1.01	0.813	0.967	1.15	1.23	1.38	1.34	1.13	0.998	0.841	0.963	0.39	0.117	1.35	1.37	1.48	1.02	0.558
CAL-12T	1.08	1.13	1.18	0.752	1.1	0.67	0.595	0.734	0.577	0.743	0.376	0.482	0.338	0.128	0.188	0.707	0.74	0.594	0.52	0.212
NCI-H596	0.831	0.978	0.873	0.871	0.858	1.19	1.06	1	1.14	0.92	0.573	0.589	0.62	0.641	0.334	1.2	0.683	1.19	1.15	0.423
PC-14	0.888	0.912	0.995	0.626	0.901	0.296	0.307	0.34	0.305	0.27	0.221	0.188	0.0739	0.0649	0.133	0.44	0.484	0.388	0.142	0.111
